Results on 1 compound are retold here after PMC8042727, “Apoptosis-like cell death upon kinetoplastid induction by compounds isolated from the brown algae Dictyota spiralis” (Parasites & Vectors, 2021).

Each structure is given as a SMILES string.

This assay concerns Leishmania amazonensis. Put plainly: ATP level (CellTiter-Glo). The format is cell-based. Conditions: L. amazonensis, IC90, 24 h, relative to negative control. How it is done: The CellTiter-Glo® luminescent cell viability assay (Promega, WI, USA) was used to quantify the adenosine triphosphate (ATP) concentration. Cells of the kinetoplastid strains (for both L. amazonensis [2 × 10^6 cells/ml] and T. cruzi [5 × 10^5cells/ml]) were incubated for 24 h with the compounds to be tested, at IC90 and 26 °C. After incubation, the cells were centrifuged and resuspended in 100 μl. To this volume, we added 100 μl of the reactive in white 96-well plates. After incubation, the luminescence signal was measured using the Enspire multimode plate reader. The decrease in ATP level was expressed as a percentage relative to the negative control. Miltefosine and benznidazole were tested as the positive control for L. amazonensis and T. cruzi, respectively.

`C=C1CC[C@@H]([C@@](C)(O)CCC=C(C)C)[C@@H](O)[C@@H]2C(C)=CC[C@@H]12` [Compound 2, dictyol E]: the “loss of ATP concentration” value turned out to be 26.6%.
